Assay results taken from article PMC3914206.

Assays:
[1] = biological target: T1, panel of 442 kinases (Homo sapiens, UniProt O15197); assay type: binding; conditions: Compound Concentration 10 µM
T1 construct: purchased KINOMEscan
T1 sequence (O15197 32-1021): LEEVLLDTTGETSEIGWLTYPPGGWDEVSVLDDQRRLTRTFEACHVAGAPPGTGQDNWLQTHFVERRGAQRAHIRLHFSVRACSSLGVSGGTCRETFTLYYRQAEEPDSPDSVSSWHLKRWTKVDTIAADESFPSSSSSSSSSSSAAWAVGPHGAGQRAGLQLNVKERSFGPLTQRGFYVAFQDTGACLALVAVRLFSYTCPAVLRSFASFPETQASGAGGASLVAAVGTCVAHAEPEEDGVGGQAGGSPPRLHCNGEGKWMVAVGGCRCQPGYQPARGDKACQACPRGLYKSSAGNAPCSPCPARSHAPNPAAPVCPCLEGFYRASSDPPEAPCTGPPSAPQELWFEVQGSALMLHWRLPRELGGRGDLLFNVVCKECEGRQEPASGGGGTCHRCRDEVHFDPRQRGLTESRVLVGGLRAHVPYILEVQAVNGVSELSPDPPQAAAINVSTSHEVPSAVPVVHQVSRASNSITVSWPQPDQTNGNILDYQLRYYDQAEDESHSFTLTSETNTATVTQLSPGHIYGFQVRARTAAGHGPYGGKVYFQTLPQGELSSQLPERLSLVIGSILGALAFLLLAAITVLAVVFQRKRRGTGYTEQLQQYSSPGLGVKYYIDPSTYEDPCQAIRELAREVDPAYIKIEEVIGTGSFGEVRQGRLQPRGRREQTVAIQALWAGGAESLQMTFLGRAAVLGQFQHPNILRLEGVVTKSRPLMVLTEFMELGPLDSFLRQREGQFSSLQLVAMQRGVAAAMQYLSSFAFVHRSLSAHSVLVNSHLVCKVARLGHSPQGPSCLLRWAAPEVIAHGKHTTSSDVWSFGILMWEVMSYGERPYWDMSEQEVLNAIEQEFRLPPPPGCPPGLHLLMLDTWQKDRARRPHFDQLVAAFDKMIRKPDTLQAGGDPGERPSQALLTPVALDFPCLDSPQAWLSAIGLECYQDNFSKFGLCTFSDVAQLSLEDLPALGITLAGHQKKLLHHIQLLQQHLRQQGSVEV
Description: (§1) We assessed the selectivity of members of this scaffold using the KINOMEscan methodology across a near comprehensive panel of 442 kinases [[18,27]].

[2] = biological target: T2, panel of 442 kinases (Homo sapiens, UniProt Q13976); assay type: binding; conditions: Compound Concentration 10 µM
T2 construct: purchased KINOMEscan
T2 sequence (Q13976 1-671): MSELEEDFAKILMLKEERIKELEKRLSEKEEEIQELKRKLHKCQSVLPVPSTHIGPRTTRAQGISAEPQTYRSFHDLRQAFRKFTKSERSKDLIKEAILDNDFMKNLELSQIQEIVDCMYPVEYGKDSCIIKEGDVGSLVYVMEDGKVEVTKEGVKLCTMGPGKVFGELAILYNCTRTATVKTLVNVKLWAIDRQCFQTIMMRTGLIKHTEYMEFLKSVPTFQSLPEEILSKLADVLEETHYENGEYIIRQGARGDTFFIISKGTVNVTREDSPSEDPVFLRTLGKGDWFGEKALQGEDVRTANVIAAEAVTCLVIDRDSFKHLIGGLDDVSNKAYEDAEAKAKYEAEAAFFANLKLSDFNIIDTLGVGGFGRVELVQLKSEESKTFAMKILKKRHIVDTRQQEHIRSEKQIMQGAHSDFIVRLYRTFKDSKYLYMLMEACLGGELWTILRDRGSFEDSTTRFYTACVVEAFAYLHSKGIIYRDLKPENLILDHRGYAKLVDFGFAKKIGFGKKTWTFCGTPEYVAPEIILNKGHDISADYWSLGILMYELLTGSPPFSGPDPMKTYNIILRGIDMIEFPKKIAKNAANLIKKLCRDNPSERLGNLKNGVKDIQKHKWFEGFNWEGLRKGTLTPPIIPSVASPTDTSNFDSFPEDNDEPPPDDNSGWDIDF
Description: as §1

COc1cc(C(=O)N2CCC(N3CCN(C)CC3)CC2)ccc1Nc1ncc2c(n1)N1CCc3cccc(c31)C(=O)N2C [Compound 24]
KINOMEscan: EPHB6 [1]: 68

CCOc1cc(C(=O)N2CCC(N3CCN(C)CC3)CC2)ccc1Nc1ncc2c(n1)N(C1CCCC1)c1ccccc1C(=O)N2C [Compound 26]
KINOMEscan: PRKG1 [2]: 100
KINOMEscan: EPHB6 [1]: 100

COc1cc(C(=O)N2CCC(N3CCN(C)CC3)CC2)ccc1Nc1ncc2c(n1)N(C1CCCC1)c1ccccc1C(=O)N2C [Compound 25, 11-cyclopentyl-2-((2-methoxy-4-(4-(4-methylpiperazin-1-yl)piperidine-1-carbonyl)phenyl)amino)-5-methyl-5H-benzo[e]pyrimido[5,4-b][1,4]diazepin-6(11H)-one]
KINOMEscan: PRKG1 [2]: 100
KINOMEscan: EPHB6 [1]: 69

COc1cc(C(=O)N2CCC(N3CCN(C)CC3)CC2)ccc1Nc1ncc2c(n1)N(C)c1ccccc1C(=O)N2C [15 (LRRK2-IN-1)]
KINOMEscan: PRKG1 [2]: 98
KINOMEscan: EPHB6 [1]: 31
